For experiment [1], the target named is T1, Cannabinoid receptor 1 (Homo sapiens, UniProt P21554). The class given is functional, cell-based.
Another experiment concerns the target T2, B2 bradykinin receptor (Homo sapiens, UniProt P30411).
T2 sequence (P30411 whole entry): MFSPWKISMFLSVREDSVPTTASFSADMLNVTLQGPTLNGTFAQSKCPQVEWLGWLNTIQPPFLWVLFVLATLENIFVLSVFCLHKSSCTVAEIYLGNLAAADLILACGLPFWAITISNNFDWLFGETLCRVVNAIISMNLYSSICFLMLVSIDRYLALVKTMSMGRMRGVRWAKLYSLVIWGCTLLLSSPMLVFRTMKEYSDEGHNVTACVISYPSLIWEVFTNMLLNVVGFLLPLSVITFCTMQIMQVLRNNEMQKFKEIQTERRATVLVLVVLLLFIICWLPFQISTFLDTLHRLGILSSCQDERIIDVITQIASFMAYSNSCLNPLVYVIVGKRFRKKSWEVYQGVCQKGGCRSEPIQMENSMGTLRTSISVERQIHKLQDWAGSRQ

The target of experiment [2] is Sodium-dependent dopamine transporter (Homo sapiens, UniProt Q01959).
Sodium-dependent dopamine transporter, sequence (Q01959 whole entry): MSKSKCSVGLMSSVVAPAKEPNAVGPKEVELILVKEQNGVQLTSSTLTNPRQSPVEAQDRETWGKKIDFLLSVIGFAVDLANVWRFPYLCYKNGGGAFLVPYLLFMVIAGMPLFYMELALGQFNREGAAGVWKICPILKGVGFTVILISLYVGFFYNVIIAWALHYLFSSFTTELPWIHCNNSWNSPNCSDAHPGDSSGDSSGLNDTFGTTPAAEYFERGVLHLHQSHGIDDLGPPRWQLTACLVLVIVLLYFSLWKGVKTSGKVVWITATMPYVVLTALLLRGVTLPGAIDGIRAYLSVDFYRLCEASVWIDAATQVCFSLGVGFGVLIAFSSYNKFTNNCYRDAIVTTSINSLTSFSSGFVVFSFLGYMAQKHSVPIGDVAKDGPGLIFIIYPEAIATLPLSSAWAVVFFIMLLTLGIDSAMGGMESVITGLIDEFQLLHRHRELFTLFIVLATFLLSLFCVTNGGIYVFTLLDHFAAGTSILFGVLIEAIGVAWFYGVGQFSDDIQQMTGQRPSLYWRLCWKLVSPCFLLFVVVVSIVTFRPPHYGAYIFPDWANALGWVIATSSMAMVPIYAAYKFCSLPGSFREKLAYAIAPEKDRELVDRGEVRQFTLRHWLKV
Experiment [3] addresses T3, Amine oxidase [flavin-containing] A (Homo sapiens, UniProt P21397).
T3 sequence (P21397 whole entry): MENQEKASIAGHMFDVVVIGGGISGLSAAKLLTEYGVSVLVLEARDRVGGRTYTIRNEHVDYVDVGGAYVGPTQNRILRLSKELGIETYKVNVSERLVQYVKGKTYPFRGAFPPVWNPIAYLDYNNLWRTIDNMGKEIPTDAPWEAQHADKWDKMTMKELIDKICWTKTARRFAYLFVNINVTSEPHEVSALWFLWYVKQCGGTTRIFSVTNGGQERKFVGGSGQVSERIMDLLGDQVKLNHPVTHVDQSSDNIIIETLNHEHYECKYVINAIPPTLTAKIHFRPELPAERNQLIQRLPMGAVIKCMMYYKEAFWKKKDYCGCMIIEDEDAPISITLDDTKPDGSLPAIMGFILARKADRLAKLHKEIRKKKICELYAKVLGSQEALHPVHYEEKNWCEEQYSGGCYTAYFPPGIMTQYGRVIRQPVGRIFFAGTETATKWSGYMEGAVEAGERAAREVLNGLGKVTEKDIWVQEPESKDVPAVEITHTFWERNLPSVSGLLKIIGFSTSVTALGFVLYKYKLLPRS
The class given is functional.

A further experiment concerns the target T4, Adenosine receptor A3 (Homo sapiens, UniProt P0DMS8).
T4 sequence (P0DMS8 whole entry): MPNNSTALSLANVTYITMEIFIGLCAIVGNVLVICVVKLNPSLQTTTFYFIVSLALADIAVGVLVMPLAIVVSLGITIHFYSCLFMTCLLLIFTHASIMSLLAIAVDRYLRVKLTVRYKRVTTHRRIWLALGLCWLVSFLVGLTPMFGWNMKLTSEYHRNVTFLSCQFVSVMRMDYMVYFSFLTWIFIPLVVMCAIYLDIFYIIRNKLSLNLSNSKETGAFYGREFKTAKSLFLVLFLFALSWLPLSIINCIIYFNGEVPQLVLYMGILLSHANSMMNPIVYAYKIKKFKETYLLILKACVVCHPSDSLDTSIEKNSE

The target of experiment [4] is T1, Cannabinoid receptor 1. The class given is functional, cell-based. This is another data set of the same source.
In experiment [5] the target is T5, Muscarinic acetylcholine receptor M2 (Homo sapiens, UniProt P08172).
T5 sequence (P08172 whole entry): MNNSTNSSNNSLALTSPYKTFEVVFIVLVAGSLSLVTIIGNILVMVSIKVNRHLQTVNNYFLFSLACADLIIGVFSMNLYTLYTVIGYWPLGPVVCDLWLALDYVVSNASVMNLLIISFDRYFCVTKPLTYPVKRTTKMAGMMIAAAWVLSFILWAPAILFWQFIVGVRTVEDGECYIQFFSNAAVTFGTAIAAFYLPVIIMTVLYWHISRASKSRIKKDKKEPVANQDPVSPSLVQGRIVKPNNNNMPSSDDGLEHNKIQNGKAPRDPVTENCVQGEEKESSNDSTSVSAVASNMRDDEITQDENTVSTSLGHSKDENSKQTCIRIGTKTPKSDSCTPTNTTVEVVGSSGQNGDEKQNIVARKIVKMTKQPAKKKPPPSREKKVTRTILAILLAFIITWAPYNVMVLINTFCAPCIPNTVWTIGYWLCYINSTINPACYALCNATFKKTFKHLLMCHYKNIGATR
The class given is functional, cell-based.

Experiment [6] has as its target T6, 5-hydroxytryptamine receptor 2B (Homo sapiens, UniProt P41595). The class given is functional, cell-based.
The target in another experiment is T7, Glucocorticoid receptor (Homo sapiens, UniProt P04150).
T7 sequence (P04150 whole entry): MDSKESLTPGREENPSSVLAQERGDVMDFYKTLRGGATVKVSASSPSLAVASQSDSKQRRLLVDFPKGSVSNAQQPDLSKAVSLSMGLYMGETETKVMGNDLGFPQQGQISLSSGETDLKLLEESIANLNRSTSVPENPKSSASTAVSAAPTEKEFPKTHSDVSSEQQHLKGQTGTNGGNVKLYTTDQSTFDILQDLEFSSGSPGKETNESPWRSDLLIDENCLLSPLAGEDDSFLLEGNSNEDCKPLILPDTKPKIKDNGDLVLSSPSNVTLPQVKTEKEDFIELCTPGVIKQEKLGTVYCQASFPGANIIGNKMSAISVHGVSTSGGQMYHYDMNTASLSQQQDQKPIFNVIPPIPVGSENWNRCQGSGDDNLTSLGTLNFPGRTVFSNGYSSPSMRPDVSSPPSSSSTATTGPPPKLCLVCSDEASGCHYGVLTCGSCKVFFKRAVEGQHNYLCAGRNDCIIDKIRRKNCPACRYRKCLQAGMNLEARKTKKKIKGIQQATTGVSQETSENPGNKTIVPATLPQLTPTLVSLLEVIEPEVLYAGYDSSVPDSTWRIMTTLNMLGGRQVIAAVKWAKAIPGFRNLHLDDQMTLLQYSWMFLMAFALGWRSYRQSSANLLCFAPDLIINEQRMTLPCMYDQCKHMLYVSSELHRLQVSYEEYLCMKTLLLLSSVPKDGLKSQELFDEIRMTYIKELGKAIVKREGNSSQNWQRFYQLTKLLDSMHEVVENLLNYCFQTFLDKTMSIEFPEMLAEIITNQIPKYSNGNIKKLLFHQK

The target in a further experiment is D(1A) dopamine receptor (Homo sapiens, UniProt P21728). The class given is functional, cell-based.
D(1A) dopamine receptor, sequence (P21728 whole entry): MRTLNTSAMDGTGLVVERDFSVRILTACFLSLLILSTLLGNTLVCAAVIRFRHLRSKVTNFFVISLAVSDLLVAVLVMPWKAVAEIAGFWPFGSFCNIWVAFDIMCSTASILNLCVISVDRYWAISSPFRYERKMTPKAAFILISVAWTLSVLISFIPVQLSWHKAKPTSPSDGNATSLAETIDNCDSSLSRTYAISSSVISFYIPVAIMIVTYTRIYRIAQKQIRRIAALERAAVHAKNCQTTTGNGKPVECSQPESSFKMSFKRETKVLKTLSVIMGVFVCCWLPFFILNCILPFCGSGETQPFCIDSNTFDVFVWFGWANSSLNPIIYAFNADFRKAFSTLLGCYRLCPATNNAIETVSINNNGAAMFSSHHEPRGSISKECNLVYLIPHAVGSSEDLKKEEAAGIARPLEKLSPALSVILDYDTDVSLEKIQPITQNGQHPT
In experiment [7] the target is T6, 5-hydroxytryptamine receptor 2B. The class given is functional, cell-based. This is another data set of the same source.

Each structure is given as a SMILES string. A value given as a limit tells only on which side of the number the result lay.
Further: assay procedure not described here.

T6 sequence (P41595 whole entry): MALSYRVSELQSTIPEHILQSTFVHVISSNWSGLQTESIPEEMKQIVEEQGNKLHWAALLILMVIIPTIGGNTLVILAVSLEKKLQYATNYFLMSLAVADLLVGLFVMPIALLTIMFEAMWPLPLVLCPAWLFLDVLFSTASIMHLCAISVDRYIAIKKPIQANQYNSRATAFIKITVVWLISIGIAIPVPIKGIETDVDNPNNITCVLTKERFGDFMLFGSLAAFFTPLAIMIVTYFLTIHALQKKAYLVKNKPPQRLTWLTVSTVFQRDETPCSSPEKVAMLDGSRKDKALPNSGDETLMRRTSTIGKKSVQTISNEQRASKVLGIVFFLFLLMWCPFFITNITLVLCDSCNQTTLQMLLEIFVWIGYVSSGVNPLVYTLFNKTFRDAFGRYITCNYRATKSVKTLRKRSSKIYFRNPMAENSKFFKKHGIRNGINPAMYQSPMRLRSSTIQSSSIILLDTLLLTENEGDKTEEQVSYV
T1 sequence (P21554 whole entry): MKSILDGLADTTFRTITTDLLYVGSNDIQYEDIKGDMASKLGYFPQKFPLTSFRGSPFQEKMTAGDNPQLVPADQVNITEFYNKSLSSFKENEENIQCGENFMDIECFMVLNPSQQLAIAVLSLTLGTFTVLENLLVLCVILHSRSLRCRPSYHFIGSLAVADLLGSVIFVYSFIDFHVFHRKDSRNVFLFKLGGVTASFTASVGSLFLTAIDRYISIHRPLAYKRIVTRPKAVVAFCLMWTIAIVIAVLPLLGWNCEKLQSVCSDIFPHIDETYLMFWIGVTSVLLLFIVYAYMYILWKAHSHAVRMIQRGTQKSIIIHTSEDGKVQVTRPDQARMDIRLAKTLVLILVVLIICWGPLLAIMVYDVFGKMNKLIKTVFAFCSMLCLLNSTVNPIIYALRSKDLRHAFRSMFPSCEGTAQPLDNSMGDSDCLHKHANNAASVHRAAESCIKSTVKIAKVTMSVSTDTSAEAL

Turning to `CC(C)OC(=O)C(C(=O)OC(C)C)=C1SC=CS1` [MALOTILATE], the AC50 (on Cannabinoid receptor 1 [1]; on B2 bradykinin receptor; in experiment [2]; in experiment [3]; at Adenosine receptor A3; on Cannabinoid receptor 1 [4]) was over 30 µM throughout. Further, the AC50 (in experiment [5]; in experiment [6]; on Glucocorticoid receptor; at D(1A) dopamine receptor; in [7]) was over 30 µM each time.

For the molecule `CC(=O)Nc1c(I)c(C(=O)N[C@H]2C(O)O[C@H](CO)[C@@H](O)[C@@H]2O)c(I)c(N(C)C(C)=O)c1I` (stereo partly drawn) [METRIZAMIDE], the AC50 was over 30 µM at Cannabinoid receptor 1 [1]; over 10 µM on B2 bradykinin receptor; over 10 µM in experiment [2]; over 10 µM in experiment [3]; over 10 µM at Adenosine receptor A3; over 30 µM at Cannabinoid receptor 1 [4]. The AC50 (in experiment [5]; in experiment [6]; at Glucocorticoid receptor; on D(1A) dopamine receptor; in experiment [7]) was over 10 µM in each case.

In the case of `CCOC(=O)Nc1ccc2c(c1)N(C(=O)CCN1CCOCC1)c1ccccc1S2` [MORICIZINE], the AC50 (at Cannabinoid receptor 1 [1]; at B2 bradykinin receptor; in [2]; in [3]; on Adenosine receptor A3; on Cannabinoid receptor 1 [4]) was over 30 µM throughout. For the same molecule, the AC50 (in [5]; in [6]; at Glucocorticoid receptor; on D(1A) dopamine receptor; in experiment [7]) was over 30 µM in each case.

Turning to `O=C1CN=C(c2ccccc2)c2cc(Cl)ccc2N1` [NORDAZEPAM], the AC50 at Cannabinoid receptor 1 [1] is over 30 µM; on B2 bradykinin receptor, over 30 µM; in [2] it was over 10 µM; in [3], over 10 µM; at Adenosine receptor A3, over 30 µM; at Cannabinoid receptor 1 [4] it was over 30 µM. The AC50 in experiment [5] was over 10 µM; in experiment [6], over 10 µM; on Glucocorticoid receptor, over 30 µM; at D(1A) dopamine receptor, over 10 µM; in experiment [7] it was over 10 µM.

As to `CC(CCc1ccccc1)NC(C)C(O)c1ccc(O)cc1` (stereo not drawn) [NYLIDRIN], the AC50 was over 30 µM on Cannabinoid receptor 1 [1]; over 30 µM on B2 bradykinin receptor; 1.44 µM in experiment [2]; over 10 µM in experiment [3]; over 30 µM on Adenosine receptor A3; over 30 µM at Cannabinoid receptor 1 [4]. Besides, the AC50 in [5] is over 10 µM; in [6] it was over 10 µM; on Glucocorticoid receptor, over 30 µM; on D(1A) dopamine receptor it was over 10 µM; in [7] it was 6.9 µM.

For the molecule `CCn1cc(C(=O)O)c(=O)c2cc(F)c(N3CCN(C)CC3)cc21` [PEFLOXACIN], the AC50 (at Cannabinoid receptor 1 [1]; at B2 bradykinin receptor; in experiment [2]; in [3]; on Adenosine receptor A3; on Cannabinoid receptor 1 [4]) was over 30 µM throughout. The AC50 (in experiment [5]; in experiment [6]; at Glucocorticoid receptor; on D(1A) dopamine receptor; in [7]) was over 30 µM in each case.

With `CC[N+]1(C)CCCC(OC(=O)C(O)(c2ccccc2)c2ccccc2)C1` (stereo not drawn) [PIPENZOLATE], the AC50 (on Cannabinoid receptor 1 [1]; on B2 bradykinin receptor; in experiment [2]; in experiment [3]; at Adenosine receptor A3; on Cannabinoid receptor 1 [4]) was over 30 µM each time. In addition, the AC50 (in experiment [5]; in experiment [6]; at Glucocorticoid receptor; on D(1A) dopamine receptor; in experiment [7]) was over 30 µM each time.

For `CC(=O)c1ccc2c(c1)N(CCCN1CCC(CCO)CC1)c1ccccc1S2` [PIPERACETAZINE], the AC50 was over 30 µM at Cannabinoid receptor 1 [1]; over 30 µM on B2 bradykinin receptor; 7.6 µM in experiment [2]; over 30 µM in experiment [3]; over 30 µM at Adenosine receptor A3; over 30 µM at Cannabinoid receptor 1 [4]. Besides, the AC50 in experiment [5] was over 30 µM; in experiment [6] it was over 30 µM; on Glucocorticoid receptor it was over 30 µM; at D(1A) dopamine receptor, over 30 µM; in experiment [7] it was 4.7 µM.

Source of the values: ChEMBL document CHEMBL5291721, “A preclinical secondary pharmacology resource illuminates target-adverse drug reaction associations of marketed drugs” (Nat Commun, 2023).
